Laboratory results taken from the NIST ThermoML archive (doi:10.1016/j.jct.2008.06.009).

Settings: Liquid, Bellows volumetry

N [ammonia]
mass density [kg/m3]
Settings	450 K	500 K
30000 kPa	355.3	–
40000 kPa	403.7	–
50000 kPa	433.4	350.9
60000 kPa	455.2	384.9
70000 kPa	472.6	410.1
80000 kPa	487.4	430.2
90000 kPa	500.2	446.9
100000 kPa	511.7	461.5
120000 kPa	531.4	485.8
140000 kPa	548.2	505.9
160000 kPa	563.1	523.1
180000 kPa	576.3	538.3
200000 kPa	588.2	551.9
